Entries after “also recorded” stand apart in the source; their conditions may differ. Read-outs that look alike come from different tables or passages of the source.
Tests used:
[1] = Free-radical-scavenging assay (DPPH method)
Description: The percentage of radical-scavenging activity (%AA, antioxidant capacity) of the RIV hybrids was first determined by the 2,2-diphenyl-1-picrylhydrazyl (DPPH) method using a compound concentration of 100 μM. […] Each calibration point was kept 30 min in darkness, and afterwards, the absorbance was measured at 517 nm. The corresponding antioxidant activity (%AA) was calculated using the equation %AA=ADPPH−Aligand/ADPPH×100. From the plot of %AA versus ligand concentration, EC50 was determined. Three independent experiments were performed, and a statistical analysis was conducted by a one-way analysis of variance (ANOVA) with the significance threshold set at p < 0.05.
The RIV hybrids were screened for their radical-scavenging activity by using the DPPH method. These assays were conducted in two stages: first, preliminary analyses were performed for all the compounds to evaluate the percentage of radical-scavenging activity by using a compound concentration of 100 μM. Afterwards, the compounds showing more than 50% antioxidant activity (AA), under those conditions, were further assessed to evaluate the respective EC50 values.

[2] = biological target: T1, electric eel acetylcholinesterase (eeAChE) (Electrophorus electricus, UniProt O42275); assay: Acetylcholinesterase inhibition (adapted Ellman's method); type: biochemical; settings: read-out: AChE Inhib IC50
T1 construct: purchased
T1 sequence (O42275 24-633): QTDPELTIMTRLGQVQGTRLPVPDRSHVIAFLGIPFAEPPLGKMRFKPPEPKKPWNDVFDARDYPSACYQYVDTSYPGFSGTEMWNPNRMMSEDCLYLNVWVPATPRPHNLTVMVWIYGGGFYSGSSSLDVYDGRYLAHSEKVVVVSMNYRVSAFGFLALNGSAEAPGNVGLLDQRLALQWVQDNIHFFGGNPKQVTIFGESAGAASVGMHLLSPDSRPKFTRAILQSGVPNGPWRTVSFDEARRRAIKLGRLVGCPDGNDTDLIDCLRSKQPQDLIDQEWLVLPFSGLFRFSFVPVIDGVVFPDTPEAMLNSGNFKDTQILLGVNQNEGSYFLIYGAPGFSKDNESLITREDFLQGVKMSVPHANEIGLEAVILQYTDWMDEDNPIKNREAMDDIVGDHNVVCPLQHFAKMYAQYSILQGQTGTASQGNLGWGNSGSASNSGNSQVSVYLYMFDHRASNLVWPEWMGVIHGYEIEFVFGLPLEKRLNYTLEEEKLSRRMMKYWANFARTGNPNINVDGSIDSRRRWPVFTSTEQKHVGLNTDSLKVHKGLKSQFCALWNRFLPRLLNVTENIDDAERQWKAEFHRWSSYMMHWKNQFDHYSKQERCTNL
Description: (§1) The enzyme inhibition of electric eel acetylcholinesterase (eeAChE) and equine butyrylcholinesterase (eqBChE) was performed according to an adaptation of Elmman’s method. Stock solutions of 1 mg of each compound in 1 mL MeOH were prepared, and adequate dilutions were further made for each ligand. A control measurement (5 replicates without a ligand) and a calibration curve of 5 points with 3 replicates per point were conducted. Each solution included fixed volumes of 4-(2-hydroxyethyl)-1-piperazine-ethanesulfonic acid (HEPES) and cholinesterase (eeAChE or eqBChE), with different volumes of ligand solution. A blank solution containing HEPES and MeOH was also prepared at the same time. After 15 min of reaction, […] (AChI) or butyrylcholine iodide (BChI) and 5,5’-dithiobis-(2-nitrobenzoic acid) (DTNB) were added to both solutions contained in spectrophotometer cuvettes, and the absorbance at 405 nm was recorded for 5 min (time interval = 1 s, slid width = 1 nm). The slope for each calibration point (absorbance versus reaction time) was determined, and the percent inhibition was calculated by using the equation: %Inhibition=100−(vi/v0×100). where vi is the reaction rate (slope) for each point of the calibration with the ligand, and v0 is the initial reaction rate (slope) for the control point (without ligand). Finally, the five-point linear regression (10–50 µL of ligand solution) corresponding to the percentage of enzyme inhibition vs. the compound concentration allowed for the determination of the half maximal inhibitory concentration (IC50, µM) (compound concentration for which enzyme activity is reduced to half). Experiments were performed twice for each ligand. Statistical analysis was performed by a one-way analysis of variance (ANOVA) with a significance threshold set at p < 0.05.

[3] = system: SH-SY5Y human neuroblastoma cell line; assay: Cell viability dose-response screening (MTT); type: cell-based; settings: 24 h
Description: (§2) Cell viability was assessed using the colorimetric MTT (3-(4,5-dimethylthiazol-2-yl)-2,5-diphenyltetrazolium bromide) assay, as previously described.
(§3) The compounds’ solutions (4AY1-6, 4BY1-3, and 4CY1) were prepared in DMSO to create stock solutions at a concentration of 25 mM, which were then stored at −20 °C. A concentration range from 0.5 µM to 20 µM was screened to identify the highest non-toxic dose. The SH-SY5Y human neuroblastoma cell line (ATCC-CRL-2266) was grown in Dulbecco’s modified Eagle’s medium (DMEM) (Thermo Fisher Scientific-Gibco, Waltham, MA, USA) supplemented with 10% heat-inactivated fetal calf serum, 50 U/mL penicillin, and 50 µg/mL streptomycin at 37 °C in a 5% CO2 atmosphere. The cells were seeded at a density of 0.1 × 10^6 cells/mL (when 48-well plates were used) or 0.15 × 10^6 cells/mL (when 24-well plates were used) one day before the experiment commenced. Following the seeding, the cells were treated with the selected concentrations of compounds for 24 h. After treatment, the cells were washed with PBS and incubated with 150 µL (in 48-well plates) or 200 µL (in 24-well plates) of MTT (0.5 mg/mL) for 2 h at 37 °C with 5% CO2. During this incubation, cellular dehydrogenases converted MTT into formazan crystals, which were subsequently dissolved in 150 µL (in 48-well plates) or 200 µL (in 24-well plates) of 0.04 M HCl/isopropanol, and the absorbance was measured at 570 nm.

Aβ1–42 = biological target: T2, Aβ1–42 (Homo sapiens, UniProt P05067); assay: Inhibition of Aβ1–42 self-aggregation (ThT fluorescence); type: biochemical; settings: read-out: % Aβ42 Self-Agg Inhib
T2 construct: the Aβ1–42 peptide (Shanghai Royobiotech Co., Ltd., Shanghai, China); purchased Shanghai Royobiotech Co., Ltd
T2 sequence (P05067 672-713): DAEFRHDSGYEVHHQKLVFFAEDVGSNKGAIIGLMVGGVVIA
Description: Firstly, the Aβ1–42 peptide (Shanghai Royobiotech Co., Ltd., Shanghai, China) was treated with 1,1,1,3,3,3-hexafluoropropan-2-ol (HFIP) and then dissolved in a CH3CN/Na2CO3 (300 μM)/NaOH (250 μM) (48.3:48.3:4.3, v/v/v) mixture in order to obtain a stable stock solution (500 μM).
Solutions of 1 mg of the assayed compounds in 2 mL of 1:1 (v/v) DMSO/MeOH (0.5 mg/mL) medium were prepared and then properly diluted with phosphate buffer (0.215 M, pH 8.0) to obtain a 120 μM final concentration. The Aβ1–42 self-aggregation inhibition assays were made based on a reported method, involving the fluorescence emission of thioflavin T (ThT). So, Aβ1–42 (40 μM) was incubated at 37 °C for 24 h in phosphate buffer and in the presence or absence of each ligand (40 μM for all compounds but 4AY4 and 4CY1, for which 20 μM was used). Then, […] 5 μM ThT in 50 mM glycine-NaOH (pH 8.5) buffer were added to each sample before transferring the samples to a 96-well microplate. Blank samples were also prepared without Aβ1–42. The ThT fluorescence was measured (446 and 485 nm excitation and emission wavelengths, respectively), and the percent of self-aggregation inhibition was determined by the equation:I% = 100 − (IFi/IF0 × 100) where IFi and IF0 are the fluorescence intensities, in the presence and the absence of the assayed compound, subtracted from the fluorescence intensities due to the respective blanks. The calculated values were obtained as the mean ± SEM of four different experiments conducted in duplicate. Statistical analysis was performed by a one-way analysis of variance (ANOVA) with a significance threshold set at p < 0.05.

[4] = biological target: T3, equine butyrylcholinesterase (eqBChE) (Equus caballus, UniProt P81908); assay: Butyrylcholinesterase inhibition (adapted Ellman's method); type: biochemical
T3 construct: purchased
T3 sequence (P81908 whole entry): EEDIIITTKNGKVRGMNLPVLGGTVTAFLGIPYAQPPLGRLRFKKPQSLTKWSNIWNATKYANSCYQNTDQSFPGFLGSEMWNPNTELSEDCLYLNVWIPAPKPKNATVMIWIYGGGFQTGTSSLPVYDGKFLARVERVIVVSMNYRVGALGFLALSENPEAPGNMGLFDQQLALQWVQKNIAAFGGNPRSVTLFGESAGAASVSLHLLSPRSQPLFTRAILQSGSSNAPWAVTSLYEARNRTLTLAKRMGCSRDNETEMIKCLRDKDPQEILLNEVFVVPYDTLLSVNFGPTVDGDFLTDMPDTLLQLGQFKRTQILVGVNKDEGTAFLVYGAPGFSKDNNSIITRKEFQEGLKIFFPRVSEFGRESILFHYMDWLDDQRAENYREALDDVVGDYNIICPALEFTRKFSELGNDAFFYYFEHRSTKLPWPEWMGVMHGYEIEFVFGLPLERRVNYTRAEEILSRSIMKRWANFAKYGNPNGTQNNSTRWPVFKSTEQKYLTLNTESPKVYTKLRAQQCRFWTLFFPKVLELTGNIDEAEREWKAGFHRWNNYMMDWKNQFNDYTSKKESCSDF
Description: as §1

[5] = system: SH-SY5Y human neuroblastoma cell line; assay: Protection against iron/ascorbate-induced toxicity (MTT); type: cell-based; settings: 1 h pre-treatment at highest nontoxic concentration, then 24 h with Fe/Asc
Description: as §2, §3
To evaluate the compounds’ protective effects against toxicity induced by Aβ1–42 or iron/ascorbate, the cells were pre-treated with each compound for one hour before adding Aβ1–42 or iron/ascorbate, followed by an additional 24-h incubation. Aβ1–42 (Bachem, Torrance, CA, USA) was prepared in sterile water to create a 443 µM stock solution and was added to the cells at a final concentration of 1 µM. Ferrous sulfate and L-ascorbic acid (Sigma Chemical Co., St. Louis, MO, USA) were introduced into the medium at final concentrations of 5 mM and 2.5 mM, respectively. […]

[6] = radical scavenging, parent acid; read-out: AA EC50; cited from earlier work

Row | SMILES | % AA (radical-scavenging activity) ([1]; compound concentration 100 μM) [%] | EC50 ([1]; read-out: AA EC50) [µM] | IC50 [2] [µM] | highest nontoxic concentration [3] [µM] | inhibition at 40 µM (Aβ1–42) [%] | SI (selectivity index) ([4]; SI = IC50 (AChE)/IC50 (BChE)) | IC50 ([4]; eqBChE, read-out: BChE Inhib IC50) [µM] | rescue of cell viability after iron/ascorbate treatment [5] | EC50 [6] [µM]
1 | CCN(C)C(=O)Oc1cccc(CNC(=O)C2(C)CCc3c(C)c(O)c(C)c(C)c3O2)c1 (stereo not shown) [4BY2, 3-((6-Hydroxy-2,5,7,8-tetramethylchromane-2-carboxamido)methyl)phenyl ethyl(methyl)carbamate] | 93.9 ± 0.4 | 20 ± 0.8 | 32 ± 2 | 1 | 47 ± 3 | 8.6 | 3.7 ± 0.1 | capable of rescuing the cell viability; also recorded: significantly improved cell viability | 
2 | O=C(O)/C=C/C=C/c1ccc(O)c(O)c1 [(2E,4E)-5-(3,4-dihydroxyphenyl)penta-2,4-dienoic acid] |  |  |  |  |  |  |  |  | 18.2 ± 0.2
3 | O=C(O)C=Cc1ccc(O)c(O)c1 [caffeic acid, 3,4-dihydroxycinnamic acid] |  |  |  |  |  |  |  |  | 21.7 ± 0.2
